# Test results from patent US12539279B2, “Supramolecular ionizable lipid molecules with heteroatomic tuning for nucleic acid delivery” (priority 2023, dated 2026).
# Tests used:
# THP-1 monocytes = assay type: cell-based, human; details: THP-1, 500 ng/well mRNA, 24 hours post-transfection
# Method: THP-1 monocytes are human cells isolated from the peripheral blood of a patient with acute monocytic leukemia. […] Cells were plated at a density of 100,000 cells per well in a 96-well plate and transfected in quadruplicates with 500 ng/well of firefly luciferase mRNA formulated in lipid nanoparticles. Cell viability and firefly luciferase expression were determined after 24 hours with a plate reader assay, following the manufacturer's protocol (Promega E7110).
# [1] = test system: firefly luciferase protein expression; test: Intramuscular expression profile of formulated firefly luciferase mRNA in mice (IVIS); assay type: in vivo, BALB/c mice; details: intramuscular firefly luciferase mRNA-LNP
# Method: All procedures used in animal studies conducted at the University of Toronto were approved by Institutional Animal Care and Use committee (IACUC) under protocol number 20012621 and comply with all applicable local, provincial, and federal regulations. Female BALB/c mice (7-8 weeks old) were purchased from Charles River Laboratories and acclimated for 1 to 2 weeks before initiation of the study.
# Mice (n=4) were injected in both quadriceps with 0.5 μg of formulated firefly luciferase mRNA in 50 μL. At various timepoints (6 hours, 24 hours, 48 hours, and 96 hours post-dose), mice were injected intraperitoneally with 3 mg D-Luciferin (Thermo Scientific 88291) in 200 μL 1×PBS. 5 minutes later, mice were anesthetized and imaged on an in vivo imaging system (PerkinElmer, IVIS Spectrum) to measure total bioluminescent flux (photons/second) in each hindlimb (FIG. 2). The area under curve (AUC) for individual hindlimbs was determined with GraphPad Prism 9.
smiles,measurement,setting,value
CCCCCCCCCCN(CCCCCCCCCC)CCOC(=O)CCCN(CCO)CCCC(=O)OCCN(CCCCCCCCCC)CCCCCCCCCC [Compound I-3],cell viability / toxicity,THP-1 monocytes,significant cell death
same,intramuscular expression (in words),[1],higher intramuscular expression than DLin-MC3-DMA
